The nature of data set [1]: physchem. As to conditions: buffer, pH 7.4.
Description: GSK_TB: GSK in-house hydrophobicity assay at pH7.4 (logD)
Data set [2] is described as follows: physchem. Conditions: octanol/water.
Description: GSK_TB: GSK in-house hydrophobicity assay (logP)
A short description of data set [3]: physchem. Conditions: phosphate buffered saline, pH 7.4.
In data set [4] the test system is Mycobacterium tuberculosis H37Rv. The experiment in a line: microbe, parasite or virus in culture.
Description: GSK_TB: Intracellular minimum inhibitory concentration (MIC) H37Rv assay

In brackets after ≈: the same amount, converted by molar mass.

Usually logD stands for the decadic logarithm of the distribution of all forms, ionised or not, between an organic phase and buffer at a given pH. Broadly, the logP is the decadic logarithm of the partition coefficient of the neutral form, usually between octanol and water. Read a low logP as lower lipophilicity. As usually defined, the solubility (kinetic) is solubility judged after dilution from a stock solution rather than from solid. In turn, `Cc1ccc2nc(C)c(C(=O)NCC(C)C)n2c1` yielded a logD in data set [1] of 3.39. The compound also came in with a logP in data set [2] of 3.41. In data set [3], this compound had a kinetic solubility of 287 µM (≈ 70.4 µg/mL). The same compound gave an MIC90 in data set [4] of 7.67 µM (≈ 1.88 µg/mL).
On the same counts, the results for `Cc1cnc(N2CCN[C@@H](Cc3ccccc3)C2)nc1Oc1ccc(-n2ccnc2)cc1.O=C(O)C(F)(F)F` are 4.04, 5.03, 228 µM and 9.23 µM.
In the same order, the values of `O=C(c1cc2c(s1)CCC2)N1CCN(Cc2ccc3c(c2)OCO3)CC1` are 6.09, 6.34, 117 µM (≈ 43.3 µg/mL) and 5.3 µM (≈ 1.96 µg/mL).
On the same counts, the results for `O=C(O)C(F)(F)F.c1ccc(C[C@H]2CN(c3nccc(Oc4ccc(-n5ccnc5)cc4)n3)CCN2)cc1` are 3.58, 4.33, 260 µM and 1.8 µM.
As for `O=C(O)C(F)(F)F.c1ccc2c(-c3ccc(CNCC4CCNC4)cc3)cncc2c1` (stereo not given), the logD in data set [1] is 1.52. Further, the logP in data set [2] came out at 3.02. The compound also came in with a kinetic solubility in data set [3] of 61 µM. This compound registered an MIC90 in data set [4] of 5.56 µM.
On the same counts, the results for `Cc1cc(OCC(=O)NCc2ccccc2)c2cc(Br)ccc2n1` are 4.97, 5.13, 15 µM (≈ 5.78 µg/mL) and 2.3 µM (≈ 0.886 µg/mL).
`CCOC(=O)c1cc(-c2csc(Nc3c(C)cc(C)cc3C)n2)on1` gave a logD in data set [1] of 7.12. Moreover, the logP in data set [2] came out at 7.45. Also, the solubility (kinetic) in data set [3] is 1 µM (≈ 0.357 µg/mL). This compound showed an MIC90 in data set [4] of 4.07 µM (≈ 1.46 µg/mL).
In the same order, the values of `CCc1nc2ccccc2n1CC(O)COc1cc(C)ccc1Cl` (stereo not given) are 5.35, 5.63, 1 µM (≈ 0.345 µg/mL) and 8.81 µM (≈ 3.04 µg/mL).
On the same counts, the results for `Cc1cc(NCCc2ccccc2)nc(NC(=N)Nc2ccc(Cl)cc2)n1` are 4, 6.74, 73 µM (≈ 27.8 µg/mL) and 2.37 µM (≈ 0.903 µg/mL).
In the same order, the values of `N=C(Nc1nc(-c2ccccn2)cc2ccccc12)c1cccc(Cl)c1` are 8.24, 8.64, 1 µM (≈ 0.359 µg/mL) and 4.5 µM (≈ 1.61 µg/mL).
The compound `c1ccc(-c2csc(Nc3nc4cc5c(cc4s3)OCO5)n2)nc1` gave a logD in data set [1] of 5.07. This compound also displayed a logP in data set [2] of 5.06. Moreover, the solubility (kinetic) in data set [3] came to 1 µM (≈ 0.354 µg/mL). Also, the MIC90 in data set [4] stood at 2.7 µM (≈ 0.957 µg/mL).
In the same order, the values of `COc1ccc(-c2ccc(Nc3cccc(S(=O)(=O)CCNCCc4cccs4)c3)nc2)cn1` are 5.63, 5.83, 1 µM (≈ 0.495 µg/mL) and 7.59 µM (≈ 3.75 µg/mL).
With `O=C(NCc1ccc(Oc2ccccc2)cc1)c1c(C(F)(F)F)nc2ccccn12`, in data set [1], the logD is 6.28. Moreover, the logP in data set [2] came to 6.58. Moreover, the solubility (kinetic) in data set [3] stood at 1 µM (≈ 0.411 µg/mL). The MIC90 in data set [4] is 0.2 µM (≈ 0.0823 µg/mL).
On the same counts, the results for `Nc1cc(OCc2ccccc2)ccc1Nc1ccccc1` are 6.65, 6.94, 1 µM (≈ 0.29 µg/mL) and 9.44 µM (≈ 2.74 µg/mL).
For `COc1ccc(-c2nc(-c3cccc(NC(=O)Cc4ccc(F)cc4)c3)no2)cc1OC`, the logD in data set [1] is 6.37. Further, in data set [2], the logP came to 6.68. The solubility (kinetic) in data set [3] turned out to be 102 µM (≈ 44.2 µg/mL). This compound had an MIC90 in data set [4] of 3.7 µM (≈ 1.6 µg/mL).
In the same order, the values of `CCn1c(=O)c(=O)[nH]c2cc(C(=O)Nc3ccccc3Nc3ccc(OC)cc3)ccc21` are 3.67, 3.87, 47 µM (≈ 20.2 µg/mL) and 8.4 µM (≈ 3.62 µg/mL).
Compound `COc1ccc(CC(=O)Nc2c(-c3cccs3)nc3cc(C)ccn23)cc1` registered a logD in data set [1] of 3.95. The logP in data set [2] was 4.02. The compound further displayed a solubility (kinetic) in data set [3] of 87 µM (≈ 32.8 µg/mL). The same compound registered an MIC90 in data set [4] of 6.8 µM (≈ 2.57 µg/mL).
In the same order, the values of `Cc1occc1C(=O)Nc1nc(-c2ccccn2)nc2ccsc12` are 4.79, 4.93, 105 µM (≈ 35.3 µg/mL) and 4 µM (≈ 1.35 µg/mL).
Take `c1ccc(CCNc2cc(-c3ccccc3)nc3nncn23)cc1`: the logD in data set [1] amounted to 4.97. In addition, the logP in data set [2] worked out at 5.13. The kinetic solubility in data set [3] is 6 µM (≈ 1.89 µg/mL). Further, the MIC90 in data set [4] was 5.5 µM (≈ 1.73 µg/mL).
On the same counts, the results for `COc1cc(Nc2ccccc2)ccc1NS(=O)(=O)c1c(C)noc1C` are 5.53, 5.78, 53 µM (≈ 19.8 µg/mL) and 6.1 µM (≈ 2.28 µg/mL).
In the same order, the values of `OC1(c2ccccc2)Oc2ccccc2N=C1c1ccccc1` (stereo not given) are 6.09, 6.19, 263 µM (≈ 79.3 µg/mL) and 6.68 µM (≈ 2.01 µg/mL).
In the same order, the values of `CN1CCN(c2ccc(C(F)(F)F)cc2NC(=O)c2ccccn2)CC1` are 6.19, 6.84, 182 µM (≈ 66.3 µg/mL) and 1.91 µM (≈ 0.694 µg/mL).
In data set [1], `COc1ccc(-c2nsc(SCC(=O)N3CCCC3)n2)cc1` returned a logD of 4.97. The compound further gave a logP in data set [2] of 5.27. This compound had a kinetic solubility in data set [3] of 10 µM (≈ 3.35 µg/mL). For the same compound, in data set [4], the MIC90 was 1.6 µM (≈ 0.538 µg/mL).
On the same counts, the results for `Cc1nnc(NCc2cccc(Cl)c2)c2ccccc12` are 4.32, 4.52, 127 µM (≈ 36 µg/mL) and 5.9 µM (≈ 1.67 µg/mL).
On the same counts, the results for `Cl.O=C(c1ccco1)N(CCCn1ccnc1)c1nc2c(Cl)cccc2s1` are 5.25, 5.63, 21 µM and 8.41 µM.
In the same order, the values of `COc1cc(C(F)(F)F)nc2ccc(C)c(N)c12` are 4.97, 5.13, 446 µM (≈ 114 µg/mL) and 5.3 µM (≈ 1.36 µg/mL).
With `Br.CCc1ccccc1OCCCON1C(=N)N=C(N)NC1(C)C`, the logD in data set [1] amounted to 3.3. The compound also displayed a logP in data set [2] of 4.83. Moreover, the kinetic solubility in data set [3] came to 225 µM. In data set [4], the MIC90 was 3.2 µM.
On the same counts, the results for `O=C(Nc1nnc(-c2ccc(Cl)cc2)o1)c1cccc(C(F)(F)F)c1` are 4.51, 6.29, 1 µM (≈ 0.368 µg/mL) and 5.62 µM (≈ 2.07 µg/mL).
In the same order, the values of `Br.Cc1ccccc1OCCCON1C(=N)N=C(N)NC1(C)C` are 2.83, 3.92, 436 µM and 3.76 µM.
In the same order, the values of `O=C(Nc1nc(-c2ccccn2)cs1)c1cncn1-c1ccccc1` are 3.39, 3.38, 118 µM (≈ 41 µg/mL) and 7.94 µM (≈ 2.76 µg/mL).
In data set [1], `Cc1nc2ccccn2c1C(=O)NCc1cccs1` showed a logD of 2.92. In data set [2], this compound registered a logP of 2.93. Also, the kinetic solubility in data set [3] amounted to 365 µM (≈ 99 µg/mL). Besides, in data set [4], the MIC90 was 9.02 µM (≈ 2.45 µg/mL).
In turn, `CC(C)n1ncc2c(C(=O)NCC(c3cccs3)N3CCOCC3)cc(-c3ccccc3)nc21` (stereo not given) gave a logD in data set [1] of 7.21. The lipophilicity (logP) in data set [2] came out at 7.54. This compound also registered a solubility (kinetic) in data set [3] of 1 µM (≈ 0.476 µg/mL). In data set [4], this compound returned an MIC90 of 4.8 µM (≈ 2.28 µg/mL).
On the same counts, the results for `CCc1c(C)nc(-n2nc(C)cc2NC(=O)c2ccccc2SC)[nH]c1=O` are 5.63, 6.48, 1 µM (≈ 0.383 µg/mL) and 1.15 µM (≈ 0.44 µg/mL).
On the same counts, the results for `CCOc1ccc(-c2nc(CNCCc3ccc(F)cc3)cs2)cc1.O=C(O)C(=O)O` are 6.09, 7.45, 159 µM and 1.07 µM.
In data set [1], `O=C(Nc1ccccc1-c1nc(C2CCC2)cs1)OCC1CCNCC1.O=C(O)C(F)(F)F` had a logD of 4.41. Besides, the logP in data set [2] was found to be 8.15. The compound also returned a kinetic solubility in data set [3] of 115 µM. In data set [4], the MIC90 was 8.71 µM.
In the same order, the values of `c1csc(-c2nnc(Sc3ccnc(N4CCN(c5ccncc5)CC4)n3)n2CCCN2CCOCC2)c1` are 2.08, 3.12, 185 µM (≈ 102 µg/mL) and 3.43 µM (≈ 1.88 µg/mL).
On the same counts, the results for `COc1ccc(-c2cc(NC(=O)c3ccc(F)cc3Cl)ccc2OC)cc1` are 6.28, 6.48, 1 µM (≈ 0.386 µg/mL) and 8.13 µM (≈ 3.14 µg/mL).
In the same order, the values of `Cc1ccc2nc(C(F)(F)F)c(C(=O)NCc3ccco3)n2c1` are 4.32, 4.48, 159 µM (≈ 51.4 µg/mL) and 3.89 µM (≈ 1.26 µg/mL).
The compound `O=C(NC(Cc1ccccc1)C(=O)Nc1ccccc1N1CCOCC1)c1cccs1` (stereo not given) came in with a logD in data set [1] of 5.53. Also, the logP in data set [2] is 5.78. For the same compound, in data set [3], the solubility (kinetic) came to 64 µM (≈ 27.9 µg/mL). This compound gave an MIC90 in data set [4] of 7.6 µM (≈ 3.31 µg/mL).
In the case of `CCCc1ccc(S(=O)(=O)Nc2ccc(CN3CCN(CC4CC4)CC3)cc2)cc1.O=C(O)C(F)(F)F.O=C(O)C(F)(F)F`, the logD in data set [1] is 4.69. Also, in data set [2], the logP stood at 5.54. In data set [3], the kinetic solubility amounted to 318 µM. In data set [4], this compound yielded an MIC90 of 7.76 µM.
In the same order, the values of `Clc1ccc(CCNc2cc(-c3ccccc3)nc3ncnn23)cc1` are 5.53, 5.73, 1 µM (≈ 0.35 µg/mL) and 1.5 µM (≈ 0.525 µg/mL).
In the same order, the values of `CN(C)S(=O)(=O)c1ccc(C(=O)Nc2nnc(-c3ccc(Cl)s3)o2)cc1` are 2.83, 4.69, 177 µM (≈ 73.1 µg/mL) and 5.82 µM (≈ 2.4 µg/mL).
In the same order, the values of `O=C(NNC(=O)c1ccc([N+](=O)[O-])o1)c1ccc2ccccc2c1` are 3.02, 3.48, 1 µM (≈ 0.325 µg/mL) and 8.32 µM (≈ 2.71 µg/mL).
`O=C(C=Cc1ccco1)N1CCN(Cc2ccc3c(c2)OCO3)CC1` returned a logD in data set [1] of 4.51. In data set [2], this compound had a logP of 4.72. Moreover, the kinetic solubility in data set [3] turned out to be 186 µM (≈ 63.3 µg/mL). This compound returned an MIC90 in data set [4] of 4.6 µM (≈ 1.57 µg/mL).
On the same counts, the results for `Br.Cc1cc(C)cc(OCCCON2C(=N)N=C(N)NC2(C)C)c1` are 3.2, 4.72, 358 µM and 5.31 µM.

These data come from ChEMBL document CHEMBL2095176, “GSK Tuberculosis Screening Data”.
